Source: US20260248809A1, “ESTRADIOL PRODRUGS AND METHODS OF USE THEREOF” (UNIVERSITY OF MARYLAND, BALTIMORE, priority 2022, published 2026)

How the values were obtained:
[1] = tested on: male mice; assay: Subthreshold social defeat stress followed by female urine sniffing test (anhedonia); format: in vivo, mouse; conditions: for stress-induced anhedonia: chronic treatment (silastic implant or minipump), orchiectomized male mice + SSDS; for anhedonia (female urine preference): orchiectomized male mice
Method: Subthreshold social defeat stress: Retired CD1 breeders are singly housed and used as aggressors. Experimental mice are introduced to the home cage of an aggressor for 2 min to initiate the physical attack phase. Afterward, mice are transferred and housed on the opposite side of the aggressor, in the same cage separated by a perforated Plexiglass divider for 15 mins in order to maintain sensory contact. This process is repeated 3 times over a period of ~50 min.
(§1) Female Urine Preference Test: is performed 24 hours after the social interaction test as using previously described methods. The amount of time mice spent interacting with a cotton-tipped applicator soaked in either fresh male or female mouse urine during a total of 3 minutes is analyzed by an experimenter blind to the experimental groups.
(§2) For the chronic administration paradigms, silastic tubes (1.02 mm inner diameter×2.16 mm outer diameter) were filled with testosterone (10 mm) or 17β-Estradiol (E2; 1,3 and 10 mm; Sigma-Aldrich, St. Louis, MO, USA). Silastic implants were primed in 0.9% saline at 37° C. overnight prior to their subcutaneous use. Letrozole (1 mg/kg/day; Sigma-Aldrich, St. Louis, MO, USA) was dissolved in propylene glycol (MP Biomedicals, Santa Ana, CA, USA) and administered through ALZET minipumps (Model 1002, 0.25 μl/hour, 14 days; Cupertino, CA, USA). DHED (synthesized using previously described methods) was dissolved in 0.9% saline and administered through ALZET minipumps (Model 1002, 0.25 μl/hour, 14 days; Cupertino, CA, USA) at a dose of […]. Flutamide was administered through 1.5 mg slow-release subcutaneous pellets (Innovative Research of America, Sarasota, FL, USA). For acute administration, 17β-Estradiol (E2; 10 and […]) was dissolved in sesame oil (4 ml/kg, s.c.; Sigma-Aldrich, St. Louis, MO, USA).
Retired CD1 breeders were singly housed and used as aggressors. Two days prior to the start of the experiment, experimental mice were also singly housed. The stress procedure was performed using previously described methods. Briefly, experimental mice were introduced to the home cage of an aggressor for 2 min to initiate the physical attack phase. Afterward, mice were transferred and housed on the opposite side of the aggressor, in the same cage separated by a perforated Plexiglass divider for 15 mins in order to maintain sensory contact. This process was repeated 3 times over a period of ~50 min. Following the completion of the third cycle, mice were placed back in their home cages.
Acute E2 was administered 45 min prior to the initiation of stress or 5 min after the completion of stress. For the optogenetic stimulation, ChR2 and YFP-injected mice received a 4 Hz, 5 ms pulse width, 10-15 mW 470 nm light stimulation for 45 min prior to the initiation of stress. This stimulation paradigm was shown previously to increase synaptic transmission. The optogenetic set up consisted of an LED driver paired with a fiber-coupled LED light source attached to a bifurcated optogenetic path cable (400 μm, 0.49 NA; ThorLabs, Newton NJ, USA).
as §1, with “FUST procedure was” for “Female Urine Preference Test: is”, “and 48 hours after stress. FUST was performed” for “as”, “was” for “is”

[2] = tested on: TRPM-2, ODC, AR and ERα expression; conditions: in vivo; cited from earlier work
[3] = tested on: ERβ-expressing BLA-to-NAc neurons; assay: cFos immunofluorescence of ERβ projections to the NAc after E2 and SSDS; format: in vivo, mouse
[4] = Body, testis and seminal vesicle weights after hormonal treatments; format: in vivo, mouse
Method: as §2
Subcutaneous implantations were performed during the same time as the orchiectomies. The surgical area was thoroughly cleaned with Betadine solution (10% povidone-iodine surgical scrub) followed by 70% ethanol. A small, approximately 1-cm incision was made between the scapulae using a pair of small sterile surgical scissors. Hemostats were then inserted and spread laterally to the incision to create a cavity in the subcutaneous space in which ALZET mini-osmotic pumps or silastic implants were inserted for continuous drug/vehicle delivery. The skin was closed with suturing.

[5] = tested on: C3 expression; conditions: rat, in vivo; cited from earlier work

In the case of `C[C@]12CC[C@@H]3c4ccc(O)cc4CC[C@H]3[C@@H]1CC[C@@H]2O` [Example E2, 17β-Estradiol], the stress-induced anhedonia [1] is reported as “reversed”, the “anhedonia (female urine preference)” value ([1]; acute administration 5 min after SSDS) is reported as “reversed only the anhedonia phenotype” and the “anhedonia (female urine preference)” value ([1]; acute s.c. administration 45 min prior to SSDS) is reported as “prevented”. For the same compound, the “expression of TRPM-2, ODC, AR and ERα in the prostate gland” value [2] was “decreases in the expression”, the “activation of ERβ-expressing BLA-to-NAc neurons (c-Fos)” value ([3]; orchiectomized mice, acute treatment prior to SSDS) was “activated at a significantly higher degree” and the “activation of the other strong ERβ-projections to the NAc (c-Fos)” value ([3]; prefrontal, cingulate and insular cortex projections) was “activation of any of the other strong ERβ-projections to the NAc in response to E2 was observed”. The body weight ([4]; chronic treatment) was “increased body weight”, the seminal vesicle weight ([4]; chronic treatment) was “increased” and the “relative seminal vesicle weights” value ([4]; s.c. treatment, compared to vehicle (saline) control) was “significant increase”. For the same compound, the “uterus C3 expression” value [5] was “increases C3 expression”.
In the case of `C[C@]12CC[C@H]3[C@@H](CCC4=CC(=O)CC[C@@]43C)[C@@H]1CC[C@@H]2O` [Testosterone, testosterone], the stress-induced anhedonia [1] is reported as “reversed the observed maladaptive behaviors”, the body weight ([4]; chronic treatment) is reported as “increased body weight” and the seminal vesicle weight ([4]; chronic treatment) is reported as “reversed”. For the same compound, the testis weight ([4]; chronic treatment) was “decreased testis weight”.
